Patent US20180193350A1, “TREATMENT OF NUT MIDLINE CARCINOMA” (Tensha Therapeutics, Inc., priority 2015, published 2018)

Legend:
[1] = system: bromodomains of the BET family; details: Bres et al. 2008; cited from earlier work
CD11b on CD14+ monocytes = test: CD11b expression levels on CD14+ monocytes in patients treated with TEN-010 (flow cytometry, MESF); format: in vivo, human
Text: Patients aged 18 years or older with histologically confirmed advanced solid tumors with progressive disease requiring therapy were enrolled in the study. In particular, patients with histologically confirmed advanced solid malignancy with progressive disease, NMC, or advanced aggressive diffuse large B cell lymphoma (DLBCL) were enrolled in the study. Patients with hemotologic malignancies were not enrolled in the study. TEN-010 was formulated as a sterile, preserved isotonic solution for subcutaneous (SC) administration. A dose of 0.45 mg/kg was administered on Days 1 through 21 (“ON segment”) of each cycle without interruption, followed by a 7-day dose-free interval (“OFF segment”) in a 28-day treatment cycle. Injections were rotated amongst several sites including bilateral upper arms and thighs and mid and lower abdomen and buttocks. Whole blood specimens were collected at specified time points (e.g., see FIG. 1) in sodium heparin vacutainers. Briefly, two 12×75 mm test tubes per donor were labeled with specimen ID and appropriate cocktail name (see Table 2 below). 100 μl of sodium heparin anticoagulated whole blood was pipetted into the test tubes. The appropriate titrated volume of antibody cocktails was pipetted into the correspondingly labeled tubes. The appropriate titrated amount of CD14 PerCP, was added to all tubes to identify CD14 positive monocytes. The tubes were vortexed and were allowed to incubate for 30 minutes at room temperature in the dark. The red blood cells were lysed by adding 4 ml of an ammonium chloride-based whole blood lysing reagent to each tube. The tubes were capped and inverted to mix well prior to incubating in the dark at room temperature for 5 minutes. After the incubation, the tubes were centrifuged at 400 RCF for 5 minutes, the supernatant decanted and the tubes rack-raked to disperse cell pellet. The cells were washed with 2 ml of PBS with 1% BSA and centrifuged. To detect biotin conjugated CD45 RO antibody, the appropriate titrated amount of SA-BV605 (streptavidin (SA) conjugated to brilliant violet (BV) 605) was added to each tube and tubes were vortexed. After a 20 minute incubation in the dark at room temperature, the cells were washed with 2 ml of PBS with 1% BSA and centrifuged. The supernatant was decanted and the cells were rack-raked to disperse the cell pellet. Each tube received 500 μl of 1% paraformaldehyde and stored at 2-8 C until acquisition on the day of preparation. The tubes were acquired on a Becton Dickinson (BD) FACSCanto™ II flow cytometer with appropriate instrument settings, acquiring approximately 250,000 total events per tube. All analyses for flow cytometry were performed on WinList 7.0 (Verity Software House, Topsham, Me.) with a direct data exchange link to Microsoft® Excel 2003 or equivalent. For FIG. 1, baseline value (pre-dose at cycle 1, day 1, i.e., C1D1) was set at an arbitrary MESF value (e.g., 100) for each patient; all subsequent values obtained from the study were normalized to the baseline value. For FIG. 2, unnormalized MESF values are shown.

[2] = system: lactate dehydrogenase (LDH); test: LDH levels in patients treated with TEN-010; format: in vivo, human; details: non-NMC patient 002-021 (FIG. 2B), despite significant rise in CD11b levels
Text: Patients aged 18 years or older with histologically confirmed advanced solid tumors with progressive disease requiring therapy were enrolled in the study. In particular, patients with histologically confirmed advanced solid malignancy with progressive disease, NMC, or advanced aggressive diffuse large B cell lymphoma (DLBCL) were enrolled in the study. Patients with hemotologic malignancies were not enrolled in the study.
TEN-010 was formulated as a sterile, preserved isotonic solution for subcutaneous (SC) administration. A dose of 0.45 mg/kg was administered on Days 1 through 21 (“ON segment”) of each cycle without interruption, followed by a 7-day dose-free interval (“OFF segment”) in a 28-day treatment cycle. Injections were rotated amongst several sites including bilateral upper arms and thighs and mid and lower abdomen and buttocks.
LDH levels were measured using standard protocols, using a chemistry analyzer, e.g., Beckman Coulter. See, e.g., Lactate OSR6193 procedure published March 2012 (webcache.googleuserconent.com/search?q=cache:iyYi7vCetH4J:https://www.beckmancoulter.com/wsrportal/techdocs%3Fdocname%3D/cis/BAOSR6x93%2525%2525/EN_LACTATE_BAOSR6x93_US.doc+&cd=2&hl=en&ct=clnk&gl=us), incorporated by reference in its entirety.

Row | Structure (SMILES) | binding to bromodomains of the BET family [1] | CD11b levels following the off-drug segment (C2D1) (CD11b on CD14+ monocytes; NMC patient 004-001) | effectiveness by C2D1 (CD11b on CD14+ monocytes; NMC patient 004-001, suggested by CD11b increase, patient died shortly thereafter) | decrease of CD11b levels relative to baseline value (CD11b on CD14+ monocytes; all 6 patients, 0.45 mg/kg SC Days 1-21 of 28-day cycle, by C1D15 vs pre-dose C1D1) | CD11b levels at start of second cycle (C2D1) (CD11b on CD14+ monocytes; all patients except NMC patient 004-001, after 21 days on-drug and 7 days off-drug) | CD11b levels (CD11b on CD14+ monocytes; non-NMC patient 002-021 (FIG. 2B)) | LDH levels [2]
1 | Cc1sc2c(c1C)C(c1ccc(Cl)cc1)=N[C@@H](CC(=O)OC(C)(C)C)c1nnc(C)n1-2 [JQ1] | specifically binds | – | – | – | – | – | –
2 | Cc1sc2c(c1C)C(c1ccc(Cl)cc1)=N[C@@H](CC(=O)NCCCN1CCN(C)CC1)c1nnc(C)n1-2 [TEN-010] | – | dramatically increased | not effective | at least 50% | held steady | significant rise | remained constant
